In paper PMC5376056, “Developing Hypothetical Inhibition Mechanism of Novel Urea Transporter B Inhibitor” (Scientific Reports, 2014):

Experiments:
UT-B [1] = target: T1, UT-B (Rattus norvegicus, UniProt P97689); experiment: erythrocyte osmotic lysis assay, rat erythrocytes; assay type: cell-based; conditions: mean ± s.e.m., n = 3
T1 construct: using erythrocytes, which originally express UT-B; endogenous in cells; host or cells: SD rat erythrocytes (vein blood)
T1 sequence (P97689 1-384): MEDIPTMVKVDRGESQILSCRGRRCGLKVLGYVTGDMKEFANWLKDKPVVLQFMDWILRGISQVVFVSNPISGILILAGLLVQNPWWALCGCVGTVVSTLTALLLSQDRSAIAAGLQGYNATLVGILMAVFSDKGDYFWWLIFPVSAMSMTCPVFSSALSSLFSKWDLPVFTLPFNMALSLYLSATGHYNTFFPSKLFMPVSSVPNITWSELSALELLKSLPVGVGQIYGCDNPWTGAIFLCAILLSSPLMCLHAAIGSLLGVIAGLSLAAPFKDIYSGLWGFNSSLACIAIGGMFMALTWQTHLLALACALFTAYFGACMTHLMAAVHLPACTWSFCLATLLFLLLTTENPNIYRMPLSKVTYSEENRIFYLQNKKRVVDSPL
Description: (§1) Vein blood was collected from humans, SD rats, wild-type mice or UT-B-null mice as described previously.
(§2) High-throughput screening assay was performed for identification of UT-B inhibitors using erythrocytes, which originally express UT-B as described previously. Erythrocytes were diluted to a hematocrit value of 2% in hyperosmolar PBS containing 1.25 M acetamide and 5 mM glucose. Erythrocyte suspensions were preserved at room temperature for 2 h by periodic pipette mixture. Then, 99 μl erythrocyte suspension from a reservoir was added to each well of a 96-well round-bottom microplate, to which test compounds were added (1 μl, 10 μM final compound concentration, 1% final DMSO concentration). After 6 min of incubation, 20 μl of the erythrocyte suspension was added rapidly to each well of a 96-well black-walled plate containing 180 μl isomolar buffer (PBS containing 1% DMSO) in each well. Erythrocyte lysis was quantified from a single time point measure of absorbance at 710 nm wavelength with a plate reader (BioTek)[27].
(§3) The percentage of erythrocyte lysis in each test well was calculated using control values from the same plate as: % lysis = 100%. (Aneg-Atest)/(Aneg-Apos), where Atest is the absorbance value from a test well. Nonspecific UT-B inhibitor phloretin (Sigma-Aldrich, 700 μM final concentration) was added as an additional positive control.

UT-B [2] = target: T2, UT-B (Mus musculus, UniProt Q8VHL0); experiment: erythrocyte osmotic lysis assay, mouse erythrocytes; assay type: cell-based; conditions: mean ± s.e.m., n = 3
T2 construct: using erythrocytes, which originally express UT-B; endogenous in cells; host or cells: wild-type mouse erythrocytes (vein blood)
T2 sequence (Q8VHL0 1-384): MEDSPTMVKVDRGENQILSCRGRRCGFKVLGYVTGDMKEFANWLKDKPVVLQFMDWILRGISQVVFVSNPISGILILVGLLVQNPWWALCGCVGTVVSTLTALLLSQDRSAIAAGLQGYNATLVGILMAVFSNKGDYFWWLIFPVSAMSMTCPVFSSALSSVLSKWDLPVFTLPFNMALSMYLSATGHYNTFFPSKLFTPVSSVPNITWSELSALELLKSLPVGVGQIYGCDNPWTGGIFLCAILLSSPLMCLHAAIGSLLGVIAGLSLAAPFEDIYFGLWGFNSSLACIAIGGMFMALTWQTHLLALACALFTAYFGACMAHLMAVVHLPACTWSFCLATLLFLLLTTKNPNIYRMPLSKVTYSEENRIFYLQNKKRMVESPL
Description: as §1, §2, §3

UT-B [3] = target: T3, UT-B (Homo sapiens, UniProt Q13336); experiment: erythrocyte osmotic lysis assay, human erythrocytes; assay type: cell-based; conditions: mean ± s.e.m., n = 3
T3 construct: using erythrocytes, which originally express UT-B; endogenous in cells; host or cells: human erythrocytes (vein blood)
T3 sequence (Q13336 1-389): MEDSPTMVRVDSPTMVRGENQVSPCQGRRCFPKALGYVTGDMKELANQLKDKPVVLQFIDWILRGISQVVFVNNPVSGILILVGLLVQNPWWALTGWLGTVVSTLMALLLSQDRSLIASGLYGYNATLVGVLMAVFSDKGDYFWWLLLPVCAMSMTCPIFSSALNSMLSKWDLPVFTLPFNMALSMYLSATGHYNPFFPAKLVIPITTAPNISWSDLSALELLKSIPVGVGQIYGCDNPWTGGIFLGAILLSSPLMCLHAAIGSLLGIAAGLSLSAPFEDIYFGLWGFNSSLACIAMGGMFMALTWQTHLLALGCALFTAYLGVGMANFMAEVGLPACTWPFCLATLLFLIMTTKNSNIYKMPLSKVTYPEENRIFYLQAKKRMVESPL
Description: as §1, §2, §3

UT-B [4] = system: UT-B; parameters: method as in PMID 23486518; conditions: rabbit; cited from earlier work
UT-B [5] = target: UT-B; parameters: method as in Ren et al., under review; conditions: pIC50 = -log(IC50) + 6; analogues of PU21; ref Ren et al., under review; cited from earlier work
UT-B [6] = target: T2, UT-B; parameters: method as in PMID 23486518; conditions: cited from earlier work
UT-B [7] = target: T1, UT-B; parameters: method as in PMID 23486518; conditions: cited from earlier work
[8] = parameters: method as in PMID 23486518; conditions: cited from earlier work
UT-B [9] = target: T3, UT-B; parameters: method as in PMID 23486518; conditions: cited from earlier work

Row | SMILES | IC50 (UT-B [1]) [µM] | IC50 (UT-B [2]) [µM] | IC50 (UT-B [3]) [µM] | UT-B inhibition activity in vitro (UT-B [4]) | pIC50 (UT-B [5]) | UT-B inhibition activity in vitro (UT-B [6]) | UT-B inhibition activity in vitro (UT-B [7]) | diuresis activity in vivo [8] | UT-B inhibition activity in vitro (UT-B [9])
1 | CCN(Cc1ccccc1)[C@H](c1cc2c(C)cc(C)cc2[nH]c1=O)c1nnnn1C[C@@H]1CCCO1 [PU168, 3-((R)-(benzyl(ethyl)amino)(1-(((S)-tetrahydrofuran-2-yl)methyl)-1H-tetrazol-5-yl)methyl)-5,7-dimethylquinolin-2(1H)-one] | > 10 | > 10 | 0.2 ± 0.03 | – | – | – | – | – | –
2 | Cn1c(=O)c2c(nc(SCC(=O)Nc3cccc(O)c3)n2Cc2ccccc2)n(C)c1=O [PU474, 2-((7-benzyl-1,3-dimethyl-2,6-dioxo-2,3,6,7-tetrahydro-1H-purin-8-yl)thio)-N-(3-hydroxyphenyl)acetamide] | > 10 | > 10 | 0.28 ± 0.01 | – | – | – | – | – | –
3 | CC(=O)c1sc2nc3ccc(C)cc3cc2c1N [PU-14] | – | – | – | potential inhibition activity | 5.454 | potential inhibition activity | potential inhibition activity | pharmacological diuresis activity | potential inhibition activity

The next lines start with results.

Row | IC50 (UT-B [1]) [µM] | IC50 (UT-B [2]) [µM] | IC50 (UT-B [3]) [µM] | SMILES | UT-B inhibition activity in vitro (UT-B [4]) | pIC50 (UT-B [5]) | UT-B inhibition activity in vitro (UT-B [6]) | UT-B inhibition activity in vitro (UT-B [7]) | diuresis activity in vivo [8] | UT-B inhibition activity in vitro (UT-B [9])
4 | 2.62 ± 0.12 | 4.81 ± 0.4 | 3.78 ± 0.48 | COc1ccc2nc3sc(C(C)=O)c(N)c3cc2c1 [PU21, 1-(3-amino-6-methoxythieno[2,3-b]quinolin-2-yl)ethanone] | – | – | – | – | – | –
5 | 3.18 ± 0.24 | 4.13 ± 0.33 | 5.63 ± 0.82 | Cc1nc2ccc(NC(=O)c3ccco3)cc2c(=O)n1Cc1ccc(Cl)cc1 [PU468, N-(3-(4-chlorobenzyl)-2-methyl-4-oxo-3,4-dihydroquinazolin-6-yl)furan-2-carboxamide] | – | – | – | – | – | –
